Experimental data from patent publication US5079261A, “Use of lipoxin A4 and its derivatives as antagonists for slow-reacting substances of anaphylaxis” (Brigham and Women's Hospital, priority 1989, dated 1992).
“Also recorded” adds a separate entry of the source.

What was measured:
[1] = molecular target: T1, mesangial cell LTD4 receptor (Rattus norvegicus, UniProt Q924T8); settings: even at a 1000-fold excess concentration
T1 sequence (Q924T8 1-339): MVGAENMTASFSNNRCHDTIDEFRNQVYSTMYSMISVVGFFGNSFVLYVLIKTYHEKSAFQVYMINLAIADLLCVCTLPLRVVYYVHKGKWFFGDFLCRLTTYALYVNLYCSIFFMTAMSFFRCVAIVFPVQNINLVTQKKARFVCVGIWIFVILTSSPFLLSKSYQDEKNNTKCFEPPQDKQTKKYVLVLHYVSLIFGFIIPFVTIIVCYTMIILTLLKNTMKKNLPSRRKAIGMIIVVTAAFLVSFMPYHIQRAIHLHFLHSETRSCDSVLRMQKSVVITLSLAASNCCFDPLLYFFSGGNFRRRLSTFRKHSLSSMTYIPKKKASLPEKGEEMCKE
Protocol: Mesangial Cell Culture: Rat mesangial cells were isolated and cultured as described previously (Harris, R. C., et al., J. Clin. Invest. 82:1028-1039(1988). Briefly, kidneys were exicesed from two young Sprague-Dawly rats under sterile conditions, and the cortices removed, minced, and washed several times in Hank's Balanced Salt Solution, containing 10 mM HEPES pH 7.4, amphotericin (0.25 μg/ml), and gentamicin (50 μg/ml). The tissue was then passed through consecutive sterilized stainless mesh filters with pore sizes of 212 μm, 150 μm, and then onto the final mesh of 75 μm. The isolated glomeruli were harvested from the surface of the 75 μm. The isolated glomeruli were harvested from the surface of the 75 μm filter and washed twisce with the Hank's Media. The glomeruli were suspended in RPMI 1640 Medium with 15% Fetal Bovine Serum (Givco), penicillin (100 μ/ml) and streptomycin (100 μg/ml) (Gibco), plated into 100 mm cell culture petri dishes, and incubated at 37° C. in a humidified atmosphere of 95% air and 5% air and 5% CO2. Mesangial cell colonies were subcultured in 60 mm culture dishes, and experiments were carried out in cells from passages 2 to 12. […] Cells were routinely grown in RPMI-1640, supplemented with 20% fetal calf serum, penicillin 100 μ/ml, and streptomycin 100 μg/ml.
Binding studies were routinely performed at 4° C. […] The cells were then dissolved with 1.0 ml of 1.0 N NaOH, neutralized with HCl, dissolved in 10 ml of Aquasol (New England Nuclear, Boston, MA), and the bound radioactivity was determined using a scintillation counter (Beckman Instruments). […] Cell density was determined by counting cells from replicate wells, using a Coulter Counter ZBi (Coulter Electronics, Inc., Hialeah, Fla.).

LTD4 receptor [2] = settings: cited from earlier work
renal arterioles = settings: rat, in vivo; cited from earlier work
rat mesangial cells = test: IP3 formation ([3H]-inositol labeled mesangial cells) in response to LTD4 or LXA4; format: cell-based; settings: Mesangial cell, read-out: increase in [3H]-IP3 counts over controls
Source text: (§1) Statistical: ANOVA with Bonferroni modification for multiple pre-planned comparisons was used, within each group and between groups, to compare the changes in various whole kidney and microcirculatory indices which occurred from one period to another. In phosphoinositide generation studies, increases in [^3 H]-IP3 CPMs in agonist-treated cells were compared to vehicle-treated controls using upaired students t-test. Differences were considered significant at a p value ≤0.05. All values are reported as means ± SEM.
The isolated glomeruli were harvested from the surface of the 75 μm filter and washed twisce with the Hank's Media. […] Mesangial cell colonies were subcultured in 60 mm culture dishes, and experiments were carried out in cells from passages 2 to 12.
(§2) To label mesangial cells with [^3 H]-Inositol, cells grown to confluence in 60 mm culture dishes (10^6 cells/dish) were cultured in RPMI, supplemented with 10% dialyzed fetal calf serum and [^3 H]-inositol (1 μCi/ml) in a total incubation volume of 5 ml.
Reactions were terminated by the addition of cold 10% trichloroacetic acid (TCA), the supernatants subjected to ether extraction, and the aqueous phase titrated to neutral pH using 0.1 M Tris base. […] To ensure the reliability of the separation technique, the same methods for extraction and separation were applied to known amounts of [^3 H]-IP1, [^3 H]IP2, and [^3 H]-IP3 standards (New England Nuclear) mixed in a ratio of 3:2:1, respectively, and subjected to separation by HPLC.

mesangial cells = settings: cited from earlier work
[3] = intra-renal arterial LTD4 1 μg/kg/min; cited from earlier work
HL-60 myeloid cells = settings: DMSO-differentiated HL-60 cells; cited from earlier work
[4] = Renal function in vivo in anesthetized rats (AP, Hct, RPF, GFR) during intrarenal arterial infusion; design: species or system male Munich-Wistar rats; settings: for Mean percent fall in RPF / Mean percent fall in GFR: without LXA4
Source text: as §1
Inulin and para-aminohippurate (PAH) clearances Were used to measure GFR and effective RPF. A needle was placed at the take-off of the left renal artery through which a maintenance infusion of 0.9% NaCl at a rate of 0.05 ml/min was initiated. […] Two experimental groups
Group I (n=14). First period: Clearances were performed during vehicle infusion.
Group II (n=12). First period: Clearances were performed during vehicle infusion.

LTD4/ LTE4 receptors = settings: in vivo and in vitro; cited from earlier work
LTD4 receptor [5] = test: Inhibition of LTD4-induced IP3 formation in mesangial cells; format: cell-based, rat
Protocol: Mesangial Cell Culture: Rat mesangial cells were isolated and cultured as described previously (Harris, R. C., et al., J. Clin. Invest. 82:1028-1039(1988). Briefly, kidneys were exicesed from two young Sprague-Dawly rats under sterile conditions, and the cortices removed, minced, and washed several times in Hank's Balanced Salt Solution, containing 10 mM HEPES pH 7.4, amphotericin (0.25 μg/ml), and gentamicin (50 μg/ml). The tissue was then passed through consecutive sterilized stainless mesh filters with pore sizes of 212 μm, 150 μm, and then onto the final mesh of 75 μm. The isolated glomeruli were harvested from the surface of the 75 μm. The isolated glomeruli were harvested from the surface of the 75 μm filter and washed twisce with the Hank's Media. The glomeruli were suspended in RPMI 1640 Medium with 15% Fetal Bovine Serum (Givco), penicillin (100 μ/ml) and streptomycin (100 μg/ml) (Gibco), plated into 100 mm cell culture petri dishes, and incubated at 37° C. in a humidified atmosphere of 95% air and […] 5% CO2. Mesangial cell colonies were subcultured in 60 mm culture dishes, and experiments were carried out in cells from passages 2 to 12. The criteria used to establish the identify of mesangial cells were as described previously (Harris, R. C., et al., J. Clin. Invest. 82:1028-1039 (1988)). Cells were routinely grown in RPMI-1640, supplemented with 20% fetal calf serum, penicillin 100 μ/ml, and streptomycin 100 μg/ml. […] All eicosanoids were stored under argon at -70° C. in methanol and their purity and quantity verified periodically by ultraviolet scanning and high pressure liquid chromatography (Serhan, C. N. et al., J. Biol. Chem. 261:16340 (1986)).
as §2
Reactions were terminated by the addition of cold 10% trichloroacetic acid (TCA), the supernatants subjected to ether extraction, and the aqueous phase titrated to neutral pH using 0.1 M Tris base. [^3 H]-IP1, [^3 H]-IP2, and [^3 H]-IP3 in the aqueous phase were separated and quantitated by anion exchange column chromatography, using the method of Berridge et al. (Berridge, M. J., Biochem. J. 220:345-360 (1984)). To ensure the reliability of the separation technique, the same methods for extraction and separation were applied to known amounts of [^3 H]-IP1, [^3 H]IP2, and [^3 H]-IP3 standards (New England Nuclear) mixed in a ratio of 3:2:1, respectively, and subjected to separation by HPLC. The latter was performed using established methodology described previously (Cunha-Melo, J. R., et al., J. Biol. Chem. 262:11455-11463 (1987)).

LTD4 receptor [6] = test: Inhibition of LXA4-induced IP3 formation in mesangial cells; format: cell-based, rat
Protocol: Mesangial Cell Culture: Rat mesangial cells were isolated and cultured as described previously (Harris, R. C., et al., J. Clin. Invest. 82:1028-1039(1988). Briefly, kidneys were exicesed from two young Sprague-Dawly rats under sterile conditions, and the cortices removed, minced, and washed several times in Hank's Balanced Salt Solution, containing 10 mM HEPES pH 7.4, amphotericin (0.25 μg/ml), and gentamicin (50 μg/ml). The tissue was then passed through consecutive sterilized stainless mesh filters with pore sizes of 212 μm, 150 μm, and then onto the final mesh of 75 μm. The isolated glomeruli were harvested from the surface of the 75 μm. […] All eicosanoids were stored under argon at -70° C. in methanol and their purity and quantity verified periodically by ultraviolet scanning and high pressure liquid chromatography (Serhan, C. N. et al., J. Biol. Chem. 261:16340 (1986)). […]
Reactions were terminated by the addition of cold 10% trichloroacetic acid (TCA), the supernatants subjected to ether extraction, and the aqueous phase titrated to neutral pH using 0.1 M Tris base. [^3 H]-IP1, [^3 H]-IP2, and [^3 H]-IP3 in the aqueous phase were separated and quantitated by anion exchange column chromatography, using the method of Berridge et al. (Berridge, M. J., Biochem. J. 220:345-360 (1984)). […]

[7] = molecular target: T1, mesangial cell LTD4 receptor; design: endogenous in cells; host or cells: primary glomerular mesangial cells of young Sprague-Dawley rats, passages 2 to 12; settings: other studies of the inventors; cited from earlier work
[8] = Group I, period 2, A: LTD4 0.5 μg/kg/min, n=4
[9] = Group I, period 2, B: LTD4 7 μg/kg/min, n=3
[10] = Group I, period 2, C: LTD4 14 μg/kg/min, n=3
[11] = Group I, period 2, D: LTD4 20 μg/kg/min, n=4
[12] = LTD4 7.0 μg/kg/min, p<0.05 vs baseline
[13] = LTD4 14.0 μg/kg/min, p<0.05 vs baseline
[14] = LTD4 20.0 μg/kg/min, p<0.05 vs baseline
[15] = 100-fold concentrations of SKF 104353

In the case of `CCCCC[C@H](O)/C=C/C=C\C=C\C=C\[C@H](O)[C@@H](O)CCCC(=O)O` [6S-LXA4, 5S,6S,15S,trihydroxy-7,9,13-trans-11-cis-eicosatetraenoic acid, reference compound], the “Competition for [3H]-LTD4 at excess concentration” value [1] is reported as “filed to compete for [^3 H]-LTD4”.

In the case of `CCCc1c(OCC(O)COc2ccc3c(=O)cc(C(=O)O)oc3c2CCC)ccc(C(C)=O)c1O` (stereo not drawn) [FPL-55712], the Duration of action (LTD4 receptor [2]) is listed as “short-acting”.

For `CCCCC/C=C\C\C=C/C=C/C=C/[C@@H](SC[C@H](N)C(=O)NCC(=O)O)[C@@H](O)CCCC(=O)O` [LTD4, reference compound], the “Kf and GFR in vivo” value (renal arterioles) is given as “markedly reduces”, the activation at 0.01 µM (rat mesangial cells) is given as 146 ± 20% and the activation at 0.05 µM (rat mesangial cells) is given as 106 ± 13%. The “Contraction of mesangial cells in culture” value (mesangial cells) was “contracts mesangial cells in culture”, the Systemic hemodynamic alterations [3] was “elevation in systemic arterial pressure and a progressive loss of plasma volume” and the “Intracellular Ca2+ concentrations” value (HL-60 myeloid cells) was “increase intracellular Ca^2+ concentrations”. For the same compound, the “GFR and RPF change (in words)” value ([4]; Group I, LTD4 0.5-20.0 μg/kg/min) was “dose-dependent reductions”, the AP [4, 8] was 127 ± 9 mmHg and the GFR [4, 8] was 0.81 ± 0.11 mL/min. It also gave a Hct [4, 8] of 48.3 ± 1.2 Vol./dl, an RPF [4, 8] of 3.41 ± 0.50 mL/min and an AP [4, 9] of 124 ± 6 mmHg. The GFR [4, 9] was 0.84 ± 0.15 mL/min, the Hct [4, 9] was 53.0 ± 1.5 Vol./dl and the RPF [4, 9] was 2.76 ± 0.59 mL/min. For the same compound, the AP [4, 10] was 148 ± 5 mmHg, the GFR [4, 10] was 0.32 ± 0.10 mL/min and the Hct [4, 10] was 59.2 ± 2.2 Vol./dl. It also gave an RPF [4, 10] of 1.51 ± 0.44 mL/min, an AP [4, 11] of 128 ± 4 mmHg and a GFR [4, 11] of 0.34 ± 0.80 mL/min. The Hct [4, 11] was 55.0 ± 1.8 Vol./dl, the RPF [4, 11] was 1.20 ± 0.15 mL/min and the “Mean percent fall in RPF” value ([4]; LTD4 0.5 μg/kg/min) was 24%. The “Mean percent fall in GFR” value ([4]; LTD4 0.5 μg/kg/min, p<0.05 vs baseline) was 27%, the “Mean percent fall in GFR” value [4, 12] was 25% and the “Mean percent fall in RPF” value [4, 12] was 40%. The “Mean percent fall in GFR” value [4, 13] was 70%, the “Mean percent fall in RPF” value [4, 13] was 65% and the “Mean percent fall in GFR” value [4, 14] was 73%. The “Mean percent fall in RPF” value [4, 14] was 70%.

For `O=C(O)CCS[C@H](c1ccccc1CCCCCCCCc1ccccc1)[C@@H](O)C(=O)O` [SKF 104353], the Agonist activity (LTD4/ LTE4 receptors) is given as “devoid of agonist activity”, the “Inhibition of IP3 formation in response to LTD4 (FIG. 2)” value (LTD4 receptor [5]; [15]) is given as “complete abolition” and the “Inhibition of LTD4-induced stimulation of [3H]-IP3 formation” value (LTD4 receptor [5]; 100-fold excess over ligand, LTD4 10 and 50 nM (n=3 each)) is given as “total abrogation”. The “Inhibition of IP3 formation in response to LXA4 (FIG. 2)” value (LTD4 receptor [6]; [15]) was “complete abolition”, the “Inhibition of LXA4-induced IP3 formation” value (LTD4 receptor [6]; SKF 104353 100 nM (n=3)) was “abrogated; also recorded: total abrogation” and the “Inhibition of [3H]-LTD4 binding to its mesangial cell binding site” value [7] was “inhibit [^3 H]-LTD4 binding”.
